{"source": "patent US20140295547A1", "about": "“METHOD TO CONSTRUCT IN-VITRO HUMAN BLOOD BRAIN BARRIER MODEL” (National Chung Cheng University, priority 2013, published 2014)", "tested_on": "in-vitro human BBB model (HBMECs co-cultured with HBVPs and HAs)", "assay": "Permeability of propidium iodide across the in-vitro human BBB model", "assay_type": "in vitro ADME", "source_text": "The present invention uses HBMECs and different ratios of HBVPs and HAs to construct a BBB model and measures TEER and permeability of propidium iodide (PI) to evaluate the integrity and performance of the BBB model. The present invention also uses a fluorescent dye Calcein to detect the activity of P-gp. The present invention also detects the concentrations of the transforming growth factor-β1 (TGF-β1), the matrix. metalloproteinases (MMP-9), and the vascular endothelial growth factor (VEGF), which influence the integrity of the BBB model.\nRefer to FIG. 1 and FIG. 2. […] In Step S10, defrost a plurality of small tubes of frozen cell-containing liquids via placing them in water having a temperature of 37° C. for 1 minute until all the frozen cell-containing liquids completely liquefy and become the suspension liquids of HBVPs, HAs and HBMECs. In Step S12, respectively suck the suspension liquids of HBVPs, HAs and HBMECs from the small tubes, respectively place the suspension liquids in pretreated culture plates, and culture the suspension liquids in a carbon-dioxide incubator having a temperature of 37° C. and a relative humidity of 95%. In Step S14, provide a pretreated culture dish 10 having a filter membrane 12 made of PET (polyethylene terephthalate); flip over the filter membrane 12; attach the suspension liquids of HBVPs and HAs by a ratio of 1:1, 1:2, or 1:6 to the bottom surface of the filter membrane 12 of the culture dish 10 to plant HBVPs 14 and HAs 16 on the bottom surface, wherein the time for attaching is 1 hour and the total planting density of HBVPs 14 and HAs 16 is 4×10^5 cells/cm^2. In Step S16, fill the suspension liquid of HBMECs into the top surface of the filter membrane 12 to plant HBMECs 18 on the top surface, wherein the planting density of HBMECs 18 is 4×10^5 cell/cm^2. […]", "data": [{"smiles": "CC[N+](C)(CC)CCC[n+]1c(-c2ccccc2)c2cc(N)ccc2c2ccc(N)cc21.[I-].[I-]", "note": "[propidium iodide]", "values": [{"measurement": "PI permeability in comparison with the BBB model with HBVPs:HAs=1:2", "setting": "BBB model with HBVPs:HAs=1:1", "value": "higher"}, {"measurement": "PI permeability in comparison with the BBB model with HBVPs:HAs=1:2", "setting": "BBB model with HBVPs:HAs=1:6", "value": "higher"}, {"measurement": "permeability of propidium iodide relative to that of a single layer of the cultured HBMECs", "setting": "HBMECs co-cultured with HBVPs:HAs=1:2, condition medium PCM:ACM 1:1 for 7 days", "value": 39, "unit": "%"}]}]}
